# From paper PMC8350395, “Hsa-miR-4277 Decelerates the Metabolism or Clearance of Sorafenib in HCC Cells and Enhances the Sensitivity of HCC Cells to Sorafenib by Targeting cyp3a4” (Frontiers in Oncology, 2021)
# Where two headings read alike, the source gives them in different places.
# Key:
# MHCC97-H cells [1] = experiment: Assessment of cell survival (MTT); format: cell-based; conditions: Homo sapiens, MHCC97H, 48 h
# Protocol: (§1) After transfection or treated with potential inhibitor of cyp3a4, HCC cells were treated with a series concentrations of sorafenib, lenvatinib, cabozantinib, regorafenib, anlotinib, or apatinib (10 μmol/L, 3 μmol/L, 1 μmol/L, 0.3 μmol/L, 0.1 μmol/L, 0.03 μmol/L, or 0.01 μmol/L). After 48 h, MTT was performed to measure ell survival, and the IC50 value of each agent was calculated ([36]–[38]).
# The *P < 0.05 being statistically significant between groups.
# SMMC-7721 = experiment: Assessment of cell survival (MTT); format: cell-based; conditions: Homo sapiens, SMMC-7721, 48 h
# Protocol: as §1
# (§2) SPSS 9.0 statistical software (IBM Corporation, Armonk, NY, USA) was used for all statistical analyses. Statistics were calculated using two-way ANOVA with the Bonferroni correction. IC50 values and the half-lie values (t1/2 values) were calculated using Origin software (Origin 6.1; OriginLab Corporation, Northampton, MA, USA). The *P < 0.05 being statistically significant between groups. The heat-map of the qPCR results were obtained according to the methods by Zhou et al. ([41]) and Yin et al. ([42]).
# BEL-7402 = experiment: Assessment of cell survival (MTT); format: cell-based; conditions: Homo sapiens, Bel-7402, 48 h
# Protocol: as §1, §2
# in vitro = conditions: human
# Protocol: (§3) HCC cells were used to examine the rate of elimination of sorafenib ([18], [19], [34], [35]). For cell-based experiments, HCC cells were treated with 1 μmol/L of sorafenib for 12 h. After treatment, the cells were harvested at a series of time-points. For in vivo experimentation, HCC cells were cultured and subcutaneously injected into mice to generate tumors. When tumor volume reached 2000 mm^3, a solution of sorafenib was directly injected into the tumors. After injection, the tumors were excised at a series of time-points. Next, sorafenib was extracted from MHCC97-H cells or tumors using the acetonitrile (ACN). The sustaining amount of sorafenib at each time-point was measured using liquid chromatography–mass spectrometry/mass spectrometry (LC-MS/MS) and the in vitro/in vivo half-life of sorafenib was determined ([18], [19], [34], [35]).
# as §2
# [2] = system: patients with advanced HCC; format: in vivo, human; conditions: advanced HCC patients receiving sorafenib
# Source text: The endogenous mRNA levels of cyp3a4 in HCC clinical specimens were identified using quantitative polymerase chain reaction (qPCR) in accordance with methods described by Wang et al. ([20]) and Ma et al. ([20], [25]). […] The results (the relative expression level [folds of β-Actin]) of PXR or CAR was shown as heat-map.
# MHCC97-H cells [3] = experiment: Nude mouse subcutaneous tumor model; format: in vivo, nude mice
# Protocol: All animal experiments were reviewed approved by the Institutional Animal Care and Use Committee, the Fifth Medical Center, Chinese PLA. All animal experiments were performed in accordance with the UK Animals (Scientific Procedures) Act, 1986 and the associated guidelines. Female nude mice were purchased from the Si-Bei-Fu Corporation, Beijing China. Following transfection, MHCC97-H cells were prepared as a single-cell suspension and subcutaneously injected into nude mice ([39], [40]). The mice orally received sorafenib once every two days. Tumors from the mice were harvested, and the volumes and weights were measured ([39], [40]).
# [4] = Assessment of sorafenib elimination in cultured HCC cells (LC-MS/MS); format: in vitro ADME; conditions: human, read-out: t1/2 values (converted)
# Protocol: as §3, §2
# in vivo = conditions: nude, mouse, in vivo, t1/2 of Sorafenib
# Protocol: as §3, §2
# [5] = system: subcutaneous tumors formed by MHCC97-H cells; experiment: in vivo
# Protocol: as §3, §2
# [6] = control miRNA, read-out: IC50 values of the agents on MHCC97-H cells
# [7] = miR-4277 + CYP3A4^Mut, read-out: IC50 values of the agents on MHCC97-H cells
# [8] = miR-4277 + CYP3A4^Mut-1, read-out: IC50 values of the agents on MHCC97-H cells
# [9] = miR-4277 + CYP3A4^Mut-2, read-out: IC50 values of the agents on MHCC97-H cells
# [10] = miR-4277, read-out: IC50 values of the agents on MHCC97-H cells
# [11] = CYP3A4 mRNA expression High (n = 26)
# [12] = CYP3A4 mRNA expression Low (n = 26)
smiles,measurement,setting,value
CNC(=O)c1cc(Oc2ccc(NC(=O)Nc3ccc(Cl)c(C(F)(F)F)c3)c(F)c2)ccn1 [Regorafenib],IC50,MHCC97-H cells [1]; [6],670 ± 490 nM
same,IC50,MHCC97-H cells [1]; [7],710 ± 280 nM
same,IC50,MHCC97-H cells [1]; [8],330 ± 320 nM
same,IC50,MHCC97-H cells [1]; [9],350 ± 90 nM
same,IC50,MHCC97-H cells [1]; [10],220 ± 40 nM
COc1cc2nccc(Oc3ccc(NC(=O)NC4CC4)c(Cl)c3)c2cc1C(N)=O [Lenvatinib],IC50,MHCC97-H cells [1]; [6],550 ± 200 nM
same,IC50,MHCC97-H cells [1]; [7],600 ± 200 nM
same,IC50,MHCC97-H cells [1]; [8],410 ± 10 nM
same,IC50,MHCC97-H cells [1]; [9],280 ± 110 nM
same,IC50,MHCC97-H cells [1]; [10],120 ± 60 nM
COc1cc2c(Oc3ccc4[nH]c(C)cc4c3F)ccnc2cc1OCC1(N)CC1 [Anlotinib],IC50,MHCC97-H cells [1]; [6],750 ± 30 nM
same,IC50,MHCC97-H cells [1]; [7],780 ± 550 nM
same,IC50,MHCC97-H cells [1]; [8],300 ± 120 nM
same,IC50,MHCC97-H cells [1]; [9],450 ± 350 nM
same,IC50,MHCC97-H cells [1]; [10],100 ± 10 nM
N#CC1(c2ccc(NC(=O)c3cccnc3NCc3ccncc3)cc2)CCCC1 [Apatinib],IC50,MHCC97-H cells [1]; [6],960 ± 330 nM
same,IC50,MHCC97-H cells [1]; [7],980 ± 370 nM
same,IC50,MHCC97-H cells [1]; [8],520 ± 270 nM
same,IC50,MHCC97-H cells [1]; [9],460 ± 300 nM
same,IC50,MHCC97-H cells [1]; [10],260 ± 70 nM
COc1cc2nccc(Oc3ccc(NC(=O)C4(C(=O)Nc5ccc(F)cc5)CC4)cc3)c2cc1OC [Cabozantinib],IC50,MHCC97-H cells [1]; [6],510 ± 190 nM
same,IC50,MHCC97-H cells [1]; [7],560 ± 150 nM
same,IC50,MHCC97-H cells [1]; [8],250 ± 60 nM
same,IC50,MHCC97-H cells [1]; [9],300 ± 210 nM
same,IC50,MHCC97-H cells [1]; [10],100 ± 40 nM
CNC(=O)c1cc(Oc2ccc(NC(=O)Nc3ccc(Cl)c(C(F)(F)F)c3)cc2)ccn1 [Sorafenib],IC50,"MHCC97-H cells [1]; MHCC97-H cells, control miRNA, read-out: IC50 of Sorafenib",700 ± 90 nM
same,IC50,"MHCC97-H cells [1]; MHCC97-H cells, miR-4277 + CYP3A4^Mut, read-out: IC50 of Sorafenib",920 ± 200 nM
same,IC50,"MHCC97-H cells [1]; MHCC97-H cells, miR-4277 + CYP3A4^Mut-1, read-out: IC50 of Sorafenib",220 ± 140 nM
same,IC50,"MHCC97-H cells [1]; MHCC97-H cells, miR-4277 + CYP3A4^Mut-2, read-out: IC50 of Sorafenib",350 ± 50 nM
same,IC50,"MHCC97-H cells [1]; MHCC97-H cells, miR-4277, read-out: IC50 of Sorafenib",150 ± 10 nM
same,IC50,"MHCC97-H cells [1]; Solvent control (no CYP3A4 inhibitor), read-out: Sorafenib on MHCC97-H IC50 values",680 ± 110 nM
same,IC50,"SMMC-7721; SMMC-7721, control",1950 ± 540 nM
same,IC50,"SMMC-7721; SMMC-7721, miR-4277",730 ± 330 nM
same,IC50,"SMMC-7721; SMMC-7721, miR-4277 + CYP3A4^Mut",1920 ± 550 nM
same,IC50,"BEL-7402; BEL-7402, control",1790 ± 180 nM
same,IC50,"BEL-7402; BEL-7402, miR-4277",280 ± 50 nM
same,IC50,"BEL-7402; BEL-7402, miR-4277 + CYP3A4^Mut",2880 ± 350 nM
same,half-life at 1 μmol/L,in vitro,21.6 ± 1.34 h
same,half-life at 1 μmol/L,in vitro; MHCC97-H cells (HCC cell line),23.6 ± 0.7 h
same,half-life at 1 μmol/L,in vitro; MHCC97-H cells (HCC cell line) transfected with miR-4277,38.5 ± 9.97 h
same,half-life at 1 μmol/L,in vitro; MHCC97-H cells (HCC cell line) with miR-4277 + CYP3A4^Mut,19.9 ± 2.71 h
same,half-life at 1 μmol/L,in vitro; MHCC97-H cells (HCC cell line) with miR-4277 + CYP3A4^Mut-1,22.1 ± 6.59 h
same,half-life at 1 μmol/L,in vitro; MHCC97-H cells (HCC cell line) with miR-4277 + CYP3A4^Mut-2,24.7 ± 8.63 h
same,OS (overall survival),[2]; [11],8.0 M
same,TTP (time to progress),[2]; [11],9.0 M
same,OS (overall survival),[2]; [12],15.0 M
same,TTP (time to progress),[2]; [12],11.0 M
same,subcutaneous growth of MHCC97-H cells,"MHCC97-H cells [3]; 0.5 mg/kg dose of sorafenib, oral, control-transfected cells",had no effect
same,"subcutaneous growth of HCC cells (tumor volumes, tumor weights)","MHCC97-H cells [3]; oral sorafenib once every two days, indicated doses, nude mice",inhibited the subcutaneous growth of HCC cells in a dose-dependent manner
same,half-life at 1 μmol/L,"[4]; BEL-7402 cells (HCC cell line) with miR-4277 + CYP3A4^Mut, BEL-7402, miR-4277 + CYP3A4^Mut",26.4 ± 3.79 h
same,half-life at 1 μmol/L,"[4]; BEL-7402 cells (HCC cell line) with miR-4277, BEL-7402, miR-4277",42.4 ± 3.33 h
same,half-life at 1 μmol/L,"[4]; BEL-7402 cells (HCC cell line), BEL-7402, control",28.2 ± 8.67 h
same,half-life at 1 μmol/L,"[4]; HepG2 cells (HCC cell line) with miR-4277 + CYP3A4^Mut, HepG2, miR-4277 + CYP3A4^Mut",25.7 ± 4.47 h
same,half-life at 1 μmol/L,"[4]; HepG2 cells (HCC cell line) with miR-4277, HepG2, miR-4277",56.4 ± 1.9 h
same,half-life at 1 μmol/L,"[4]; HepG2 cells (HCC cell line), HepG2, control",30.3 ± 3.31 h
same,half-life at 1 μmol/L,"[4]; SMMC-7721 cells (HCC cell line) with miR-4277 + CYP3A4^Mut, SMMC-7721, miR-4277 + CYP3A4^Mut",27.4 ± 6.93 h
same,half-life at 1 μmol/L,"[4]; SMMC-7721 cells (HCC cell line) with miR-4277, SMMC-7721, miR-4277",46.2 ± 2.88 h
same,half-life at 1 μmol/L,"[4]; SMMC-7721 cells (HCC cell line), SMMC-7721, control",25.7 ± 2.43 h
same,half-life,in vivo,45.7 ± 5.31 h
same,t1/2 of Sorafenib,"[5]; nude, mouse, in vivo",72.79 ± 7.52 h
same,t1/2 of Sorafenib,"[5]; subcutaneous MHCC97-H tumors, miR-4277 + CYP3A4^Mut-1, sorafenib injected into tumors",52.38 ± 16.19 h
same,t1/2 of Sorafenib,"[5]; subcutaneous MHCC97-H tumors, miR-4277 + CYP3A4^Mut, sorafenib injected into tumors",36.67 ± 12.58 h
